According to patent US11279712B2, “Macrocyclic compounds that inhibit MCL-1 protein” (AMGEN INC., priority 2017, dated 2022):

Assays:
[1] = test system: OPM-2 human multiple myeloma cell line; test: Cell Viability Assay (OPM-2 10 FBS); type: cell-based; conditions: OPM-2 cells, 16 h, CellTiter-Glo, read-out: OPM-2 10% FBS IC50 IP
Outline: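 OPM-2 myeloma cells seeded at 3000 cells/well in RPMI 1640 with 10% FBS and exposed to serially diluted compounds for 16 h at 37° C., 5% CO2.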

[2] = target: Mcl-1/Bim interaction (recombinant human Mcl-1 residues 171-327) (Homo sapiens (Human), UniProt Q07820); test: Cell Free Mcl-1:Bim Affinity Assay (Mcl-1 HTRF); type: binding; conditions: TR-FRET, 0.1 nM Mcl-1(171-327), 0.05 nM biotin-Bim(51-76)
Mcl-1/Bim interaction (recombinant human Mcl-1 residues 171-327), sequence (Q07820 171-327): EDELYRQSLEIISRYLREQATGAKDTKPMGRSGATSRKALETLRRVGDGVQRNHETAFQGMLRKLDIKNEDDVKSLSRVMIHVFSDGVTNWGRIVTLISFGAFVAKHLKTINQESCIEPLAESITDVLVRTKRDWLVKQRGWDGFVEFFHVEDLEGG
Outline: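 TR-FRET competition using 0.1 nM His-tagged Mcl-1(171-327), 0.05 nM biotin-Bim(51-76), Eu anti-His and streptavidin-Xlent in 20 mM Hepes pH 7.5, 150 mM NaCl, Brij-35, 1 mM DTT. Compounds pre-incubated 60 min with protein and peptide, then overnight after detection mix; 665/620 nm ratio fitted to four-parameter curves for IC50 (duplicates).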

`C[C@@H]1[C@@H](C)CCC[C@H](C=O)[C@@H]2CC[C@H]2CN2C[C@@]3(CCCc4cc(Cl)ccc43)COc3ccc(cc32)C(=O)NS1(=O)=O` [Example 60] was tested, and the IC50 [1] was 1330 nM and the IC50 [2] was 0.552 nM.
